Measured values taken from PMC11591356, “Immunomodulatory Effects of the Tobacco Defensin NaD1” (Antibiotics, 2024).
Where two headings read alike, the source gives them in different places. Ends that are not written are not given here.

Experiments:
[1] = tested on: THP-1-derived macrophages; test: ELISA assay of cytokine production by THP-1-derived macrophages; type: cell-based, human
Experimental: THP-1 (ATCC TIB-202) cells were thawed and cultured in complete RPMI-1640, containing 10% FBS (Capricorn Scientific) and 1×AA solution in CO2-intubator. Monocytic THP-1 cells were differentiated into resting M0 macrophages by stimulation for 24 h with 100 ng/mL phorbol 12-myristate 13-acetate (PMA) in complete RPMI-1640. Then, the attached macrophage-like cells were washed out with culture medium without serum and incubated for another 48 h in PMA-free complete culture medium with 10% HS and 1×AA solution.
THP-1-derived macrophages were seeded into the wells of a 24-well plate at a density of 2.7 × 10^5 cells/well in complete RPMI-1640 with 10% HS and 1×AA solution. Then, 24 h later, the culture medium was replaced by the fresh complete RPMI-1640 containing lipopolysaccharide from Escherichia coli 0111:B4 (LPS, Sigma, St. Louis, MO, USA) or zymosan from the cell wall of Saccharomyces cerevisiae (Serva, Heidelberg, Germany) at concentrations of 1 or 10 μg/mL, respectively; antimicrobial peptides NaD1, Psd1, LL-37 or HBD2 at concentrations of 2 or 0.2 µM; and combinations of antimicrobial peptides with LPS or zymosan at the same concentrations. Insoluble zymosan was resuspended in sterile water and sonicated twice for 30 s; after that, the stock solution was heated to 80 °C for 20 min. Peptides were added 2 h before stimulation with LPS and zymosan. After that, PAMPs solutions were added and the cells were cultured for 24 h. Complete RPMI-1640 only was used in the control wells. Culture supernatants were collected and stored at −70 °C prior to the cytokines’ assessment.
The production of pro- and anti-inflammatory cytokines IL-1β, IL-6, TNF-α and IL-10 by stimulated and non-stimulated THP-1-derived macrophages were estimated by using ELISA kits (Vector-Best, Koltsovo, Russia). Briefly, 96-well plates with adsorbed monoclonal antibodies to the corresponding cytokine were used. Undiluted or diluted 5, 20 or 80 times in the case of IL-10, TNF-α and IL-1β or IL-6, respectively, culture supernatants from the wells of 24-well plates were taken for analysis. Biotinylated polyclonal antibodies to cytokines, streptavidin conjugated to HRP and TMB substrate were further used for the detection of immune complexes. A panel of calibration solutions containing different concentrations of cytokines was used in each experiment. Experiments were performed using two biological and two technical repeats. The release of the cytokines in the control and experimental samples was compared with an unpaired two-sample t-test using GraphPad Prism v.8.0.1 (GraphPad Software, Inc., San Diego, CA, USA). The p values ≤ 0.05 were considered significant.

[2] = tested on: Caco-2 cells not in a monolayer; settings: 24 h, resazurin
Experimental: The cytotoxic effects of the tobacco defensin NaD1 towards PBMCs or Caco-2 cells were investigated in 96-well plates using the resazurin method as previously described. In brief, 4 × 10^5 per well Caco-2 cells not in a monolayer as well as Caco-2 cells in a monolayer in DMEM/F12 (1:1) medium with 10% FBS or 2 × 10^6 PBMCs per well in RPMI-1640 also with 10% FBS were incubated with serial dilutions of NaD1 at final concentrations from 0.39 to 50 μM or from 2.1 to 180 μM for 24 h. After that, resazurin (Sigma, St. Louis, MO, USA) was added at a final concentration of 70 µM and the plates were incubated overnight (16–18 h). Untreated cells and cells treated by non-ionogenic detergent Triton X-100 were used as negative and positive controls, respectively. […] The cell viability was estimated by resorufin fluorescence registered at […] via the following equation: cell viability (%) = (Fsample/Fcontrol) × 100%. Experiment was carried out twice in duplicate.

[3] = tested on: Candida albicans ATCC 18804; test: Antifungal microdilution assay with or without LPS or zymosan; type: cell-based
Experimental: The antifungal assay was performed by the microdilution method using 96-well microplates as described. Briefly, C. albicans ATTC 18804 cells in stock were inoculated onto Sabouraud agar plates with 2% glucose and incubated for 24 h at 37 °C. After replating, cells were inoculated in Sabouraud broth and cultured at 37 °C for 2 h. The cell concentration was determined using a LUNA-II cell counter (Logos Biosystems, Anyang-si, Republic of Korea). Yeast cells in Sabouraud broth diluted to concentration of 4 × 10^4 cells/mL were mixed with equal volumes of serial two-fold dilutions of the peptides in water and the plates were incubated at 30 °C for 24 h. The final peptide concentrations in the wells were 25, 12.5, 6.25, 3.13, 1.56, 0.78 and 0.39 μM. Controls without peptides were also tested. […] Yeast growth was assessed using an inverted light microscope and also by measuring absorbance at 630 nm. The minimum inhibitory concentrations IC50 and MIC were defined as the lowest peptide concentrations inhibiting fungal growth by at least 50 and 100%, respectively. […] The MFCs corresponded to the minimal peptide concentration, in which no colony growth was observed.
To estimate the effects of LPS and zymosan on the antifungal activity of NaD1 and LL-37, these PAMPs were added in culture media at concentrations of 10, 40 and 100 μg/mL [39, 40]. All of the experiments were performed twice in triplicate.

[4] = peptide 2 µM 2 h before LPS 1 μg/mL, 24 h, vs LPS alone
[5] = peptide 2 µM 2 h before zymosan 10 μg/mL, 24 h, vs zymosan alone

## NaD1: Recombinant tobacco floral defensin NaD1 (UNIPROT Q8GTM0), obtained by heterologous expression in E. coli; FITC-labeled in the permeability assay (RECKTESNTFPGICITKPPCRKACISEKFTDGHCSKILRRCLCTKPC; cysteine pairing not given here; also: FITC label; UniProt Q8GTM0 26-72, looked up)
[1]; elevation from 150 (without NaD1)
  IL-10 production by M0 and M1 macrophages: 180 pg/mL
[1]; increase from 4500 (without NaD1)
  IL-1β production by M0 and M1 macrophages: 6500 pg/mL
[1]; [4]
  LPS-induced IL-1β production: increased the LPS-induced production of IL-1β
  LPS-induced IL-10 production: increased the LPS-induced production of IL-10
  LPS-induced TNF-α secretion: reduced the LPS-induced secretion of TNF-α
[1]; [5]
  IL-1β production in the presence of zymosan: induced the production of IL-1β (p <0.0001) more strongly than without this PAMP
  IL-10 production in the presence of zymosan: increased the production of IL-10 in the presence of zymosan
[1]; peptide 2 µM alone, vs unstimulated control
  IL-10 production, unstimulated macrophages: induced the production of IL-10
[1]; peptide 2 µM alone, vs unstimulated control, two biological and two technical repeats
  IL-1β production, unstimulated macrophages: significantly increased IL-1β level
[2]; calculated
  CC50: 61.8 µM
[2]; peptide 53.3 µM
  Cell viability: approximately 62%
[2]; peptide 180 μM
  Cell viability: 8%
[3]; 10 μg/mL LPS
  IC50: 3.12 to 6.25 µM
  MFC: 12.5 µM
  MIC: 6.25 µM
[3]; 10 μg/mL Zymosan
  IC50: 3.12 to 6.25 µM
  MFC: 12.5 µM
  MIC: 6.25 µM
[3]; 40 μg/mL LPS
  IC50: 3.12 to 6.25 µM
  MFC: 12.5 µM
  MIC: 6.25 µM
[3]; 40 μg/mL Zymosan
  IC50: 3.12 to 6.25 µM
  MFC: 25 µM
  MIC: 6.25 µM
[3]; 100 μg/mL LPS
  IC50: 3.12 to 6.25 µM
  MFC: 12.5 µM
  MIC: 12.5 µM
[3]; 100 μg/mL Zymosan
  IC50: 3.12 to 6.25 µM
  MFC: 25 µM
  MIC: 6.25 µM
[3]; without PAMP, Sabouraud broth, 30 °C, 24 h, 100% growth inhibition
  MIC: 6.25 µM
[3]; without PAMP, Sabouraud broth, 30 °C, 24 h, lowest concentration inhibiting growth by at least 50%, twice in triplicate
  IC50: 3.12 to 6.25 µM
[3]; without PAMP, plating on Sabouraud agar, 37 °C, 24 h, no colony growth
  MFC: 12.5 µM
